Assay results taken from patent publication US5990142A, “Benzopyran derivatives having leukotriene-antagonistic action” (Laboratorios Menarini S.A., priority 1996, dated 1999).

target: T1, LTD4 receptor (Cavia porcellus, UniProt Q2NNR5); assay: [^3 H]-LTD4 Receptor Binding Inhibition Test in Guinea-pig Lung Membranes; conditions: 0.5 nM [^3 H]-LTD4, 30 min at 25° C., pH 7.4, Cheng-Prusoff
T1 construct: Guinea pig lung membranes, containing the LTD4 receptors, are purified; from tissue; host or cells: guinea-pig lung membranes
T1 sequence (Q2NNR5 1-340): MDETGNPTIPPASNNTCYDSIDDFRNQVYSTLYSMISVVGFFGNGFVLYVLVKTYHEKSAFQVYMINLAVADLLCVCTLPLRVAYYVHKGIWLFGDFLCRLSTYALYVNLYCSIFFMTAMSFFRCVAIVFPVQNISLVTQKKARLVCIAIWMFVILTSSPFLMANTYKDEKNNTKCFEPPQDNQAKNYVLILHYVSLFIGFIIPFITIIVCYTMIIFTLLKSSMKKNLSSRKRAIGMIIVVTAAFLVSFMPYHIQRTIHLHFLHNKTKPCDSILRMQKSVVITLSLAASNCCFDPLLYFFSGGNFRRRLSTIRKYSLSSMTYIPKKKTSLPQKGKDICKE
Protocol: The antagonistic activity on LTD4 of the compounds of the present invention is determined by means of an inhibition test of the [^3 H]-LTD4 receptor binding in guinea-pig lung membranes.
[^3 H]-LTD4 Receptor Binding Inhibition Test in Guinea-pig Lung Membranes
Guinea pig lung membranes, containing the LTD4 receptors, are purified following the method described by Mong and col. (Mong et al., Prostaglandins, 1984, 28. 805). These purified membranes (150 μg/ml) are added to an incubation mixture containing 10 mM of PIPES buffer (piperazine-N,N'-bis(2-ethanesulfonic acid) (pH 7.4), 10 mM CaCl2, 10 mM MgCl2, 2 mM cysteine, 2 mM glycine, 0.5 nM [^3 H]-LTD4 (4700-6400 GBq/mmol) and different concentrations of the product under test in a final volume of 310 μl. The reaction mixture is incubated for 30 minutes at 25° C.
The radioligand bound to the membranes is separated from the free one by dilution with 4 ml washing buffer (10 mM Tris-HCl (pH 7.4) and 100 mM NaCl) at 0° C. and filtration with Whatman GF/B filters, by means of a Brandel Cell Harvester. The filters are washed 4 times with a total volume of 16 ml of washing buffer at 0° C. The radioactivity present in the filters is determined by liquid scintillation.
The specific binding is defined as the difference between the total binding of [^3 H]-LTD4 and the non-specific binding determined in the presence of 1 μM LTD4. The data obtained in the competition tests are analyzed by a computational program, which determines the inhibition constant of each compound (Ki) by means of the Cheng-Prusoff equation (Cheng et al., Biochem. Pharmacol., 1973, 22, 3094).
wherein IC50 is the concentration of compound which displaces a 50% of the bound radioligand, [L] is the concentration of [^3 H]LTD4 free in the test and Kd is the dissociation constant of the LTD4 obtained in an independent way by means of Scatchard analysis.

| Ki [nM] | SMILES |
| --- | --- |
| 145 ± 34 | O=C(Nc1cccc2c(=O)cc(C(=O)O)oc12)c1ccc2c(c1)CCC(COCc1ccccc1)O2 (centres unmarked) [Example 1, 8-[2-(Benzyloxymethyl)chromane-6-carboxamido]-4-oxo-4H-1-benzopyran-2-carboxylic acid] |
| 12 ± 4 | O=C(Nc1cccc2c(=O)cc(-c3nnn[nH]3)oc12)c1ccc2c(c1)CCC(COCc1ccccc1)O2 (centres unmarked) [Example 2, N-[4-Oxo-2-(1H-5-tetrazolyl)-4H-1-benzopyran-8-yl]-2-(benzyloxymethyl)chromane-6-carboxamide] |
| 5.6 ± 0.5 | O=C(Nc1cccc2c(=O)cc(C(=O)O)oc12)c1ccc2c(c1)CCC(CCCc1ccccc1)O2 (centres unmarked) [Example 3, 8-[2-(3-Phenylpropyl)chromane-6-carboxamido]-4-oxo-4H-1-benzopyran-2-carboxylic acid] |
| 2.3 ± 0.2 | O=C(Nc1cccc2c(=O)cc(-c3nnn[nH]3)oc12)c1ccc2c(c1)CCC(CCCc1ccccc1)O2 (centres unmarked) [Example 4, N-[4-Oxo-2-(1H-5-tetrazolyl)-4H-1-benzopyran-8-yl]-2-(3-phenylpropyl)chromane-6-carboxamide] |
| 24 ± 3 | O=C(Nc1cccc2c(=O)cc(C(=O)O)oc12)c1ccc2oc(COCc3ccccc3)cc2c1 [Example 5, 8-[2-(Benzyloxymethyl)benzofuran-5-carboxamido]-4-oxo-4H-1-benzopyran-2-carboxylic acid] |
| 6 ± 2.1 | O=C(Nc1cccc2c(=O)cc(C(=O)O)oc12)c1ccc2c(c1)CC(COCc1ccccc1)O2 (centres unmarked) [Example 6, 8-(2-Benzyloxymethyl-2,3-dihydrobenzofuran-5-carboxamido)-4-oxo-4H-1-benzopyran-2-carboxylic acid] |
| 1.88 ± 0.2 | O=C(Nc1cccc2c(=O)cc(-c3nnn[nH]3)oc12)c1ccc2c(c1)CC(COCc1ccccc1)O2 (centres unmarked) [Example 7, N-[4-Oxo-2-(1H-5-tetrazolyl)-4H-1-benzopyran-8-yl]-2-benzyloxymethyl-2,3-dihydrobenzofuran-5-carboxamide] |
| 1.73 ± 0.2 | O=C(Nc1cccc2c(=O)cc(C(=O)O)oc12)c1ccc2c(c1)CC(CCCc1ccccc1)O2 (centres unmarked) [Example 8, 8-[2-(3-Phenylpropyl)-2,3-dihydrobenzofuran-5-carboxamido]-4-oxo-4H-1-benzopyran-2-carboxylic acid] |
| 1.1 ± 0.2 | O=C(Nc1cccc2c(=O)cc(-c3nnn[nH]3)oc12)c1ccc2c(c1)CC(CCCc1ccccc1)O2 (centres unmarked) [Example 9, N-[4-Oxo-2-(1H-5-tetrazolyl)-4H-1-benzopyran-8-yl]-2-(3-phenylpropyl)-2,3-dihydrobenzofuran-5-carboxamide] |
| 9 ± 0.8 | O=C(Nc1cccc2c(=O)cc(C(=O)O)oc12)c1ccc2c(c1)CC(CSCc1ccccc1)O2 (centres unmarked) [Example 10, 8-(2-Benzylthiomethyl-2,3-dihydrobenzofuran-5-carboxamido)-4-oxo-4H-1-benzopyran-2-carboxylic acid] |
| 1.9 ± 0.04 | O=C(Nc1cccc2c(=O)cc(C(=O)O)oc12)c1ccc2c(c1)CC(COCc1ccc(F)cc1)O2 (centres unmarked) [Example 11, 8-[2-(4'-Fluorobenzyloxymethyl)-2,3-dihydrobenzofuran-5-carboxamido]-4-oxo-4H-1-benzopyran-2-carboxylic acid] |
| 0.39 ± 0.1 | O=C(Nc1cccc2c(=O)cc(-c3nnn[nH]3)oc12)c1ccc2c(c1)CC(COCc1ccc(F)cc1)O2 (centres unmarked) [Example 12, N-[4-Oxo-2-(1H-5-tetrazolyl)-4H-1-benzopyran-8-yl]-2-(4'-fluorobenzyloxymethyl)-2,3-dihydrobenzofuran-5-carboxamide] |
| 9.3 ± 3 | O=C(Nc1cccc2c(=O)cc(C(=O)O)oc12)c1cc(Cl)c2c(c1)CC(CCCc1ccccc1)O2 (centres unmarked) [Example 13, 8-[7-chloro-2-(3-phenylpropyl)-2,3-dihydrobenzofuran-5-carboxamido]-4-oxo-4H-1-benzopyran-2-carboxylic acid] |
| 4.2 ± 1.1 | O=C(Nc1cc(F)cc2c(=O)cc(C(=O)O)oc12)c1ccc2c(c1)CC(CCCc1ccccc1)O2 (centres unmarked) [Example 14, 8-[2-(3-Phenylpropyl)-2,3-dihydrobenzofuran-5-carboxamido]-6-fluoro-4-oxo-4H-1-benzopyran-2-carboxylic acid] |
| 102 ± 48 | O=C(O)c1cc(=O)c2cccc(NC(=O)c3ccc4c(c3Cl)CC(CCCc3ccccc3)O4)c2o1 (centres unmarked) [Example 15, 8-[4-Chloro-2-(3-phenylpropyl)-2,3-dihydrobenzofuran-5-carboxamido]-4-oxo-4H-1-benzopyran-2-carboxylic acid] |
| 169 ± 24 | O=C(O)c1cc(=O)c2cccc(NC(=O)c3cc4c(cc3Cl)OC(CCCc3ccccc3)C4)c2o1 (centres unmarked) [Example 16, 8-[6-Chloro-2-(3-phenylpropyl)-2,3-dihydrobenzofuran-5-carboxamido]-4-oxo-4H-1-benzopyran-2-carboxylic acid] |
| 1200 ± 440 | Cc1cn(CCCCc2ccccc2)c2ccc(C(=O)Nc3cccc4c(=O)cc(-c5nnn[nH]5)oc34)cc12 [Example 17, N-[4-Oxo-2-(1H-5-tetrazolyl)-4H-1-benzopyran-8-yl]-1-(4-phenylbutyl)-3-methylindole-5-carboxamide] |
| 1.25 ± 0.3 | O=C(O)c1cc(=O)c2cccc(/C=C/c3ccc4c(c3)CC(COCc3ccc(F)cc3)O4)c2o1 (centres unmarked) [Example 25, 8-[(E)-2-[2-(4'-Fluorobenzyloxymethyl)-2,3-dihydrobenzofuran-5-yl]ethen-1-yl]-4-oxo-4H-1-benzopyran-2-carboxylic acid] |
| 0.46 ± 0.1 | O=c1cc(-c2nnn[nH]2)oc2c(/C=C/c3ccc4c(c3)CC(COCc3ccc(F)cc3)O4)cccc12 (centres unmarked) [Example 26, 8-[(E)-2-[2-(4'-fluorobenzyloxymethyl)-2,3-dihydrobenzofuran-5-yl]ethen-1-yl]-4-oxo-2-(5-1H-tetrazolyl)-4H-1-benzopyran] |

| SMILES | Ki [nM] |
| --- | --- |
| O=C(O)c1cc(=O)c2cccc(OCc3ccc(OCCCCc4ccccc4)cc3)c2o1 [Example 18, 8-[[4-(4-phenylbutoxy)phenyl]methyloxy]-4-oxo-4H-1-benzopyran-2-carboxylic acid] | 174 ± 43 |
| O=C(O)c1cc(=O)c2cccc(NS(=O)(=O)c3ccc(OCCCCc4ccccc4)cc3)c2o1 [Example 19, 8-[[4-(4-Phenylbutoxy)phenyl]sulfonylamino]-4-oxo-4H-1-benzopyran-2-carboxylic acid] | 6 ± 1 |
| O=C(O)c1cc(=O)c2cccc(/C=C/c3ccc(OCCCCc4ccccc4)cc3)c2o1 [Example 20, 4-oxo-8-[(E)-2-[4-(4-phenylbutoxy)phenyl]ethen-1-yl]-4H-1-benzopyran-2-carboxylic acid] | 6.2 ± 1.3 |
| O=c1cc(-c2nnn[nH]2)oc2c(/C=C/c3ccc(OCCCCc4ccccc4)cc3)cccc12 [Example 21, 8-[(E)-2-[4-(4-Phenylbutoxy)phenyl]ethen-1-yl]-4-oxo-2-(5-1H-tetrazolyl]-4H-1-benzopyran] | 0.5 ± 0.2 |
| O=C(O)c1cc(=O)c2cccc(/C=C/c3ccc(OCCCCc4ccc(F)cc4)cc3)c2o1 [Example 22, 8-[(E)-2-[4-[4-(4-Fluorophenyl)butoxy]phenyl]-ethen-1-yl]-4-oxo-4H-1-benzopyran-2-carboxylic acid] | 6 ± 3 |
| O=c1cc(-c2nnn[nH]2)oc2c(/C=C/c3ccc(OCCCCc4ccc(F)cc4)cc3)cccc12 [Example 23, 8-[(E)-2-[4-[4-(4-Fluorophenyl)butoxy]phenyl]ethen-1-yl]-4-oxo-2-(5-1H-tetrazolyl)-4H-1-benzopyran] | 0.39 ± 0.1 |
| O=C(O)c1cc(=O)c2cccc(/C=C/c3ccc(OCCCCc4ccccc4)cc3F)c2o1 [Example 24, 8-[(E)-2-[4-(4-Phenylbutoxy)-2-fluorophenyl]ethen-1-yl]-4-oxo-4H-1-benzopyran-2-carboxylic acid] | 22.3 ± 0.1 |
